Test results reported in US20180042873A1, “NOVEL METHODS” (Aeromics, Inc., priority 2014, published 2018).

How the values were obtained:
[1] = tested on: cardiac allograft (BalbC donor heart in B6 recipient); assay: Cardiac allograft rejection model (intraabdominal heterotopic vascularized cardiac transplantation between genetically mismatched mice); type: in vivo, mouse; settings: for survival after 20 days: BalbC heart into B6, after 20 days; for survival after 50 days: BalbC heart into B6, after 50 days
Protocol: The ability of an APQ inhibitor of the present disclosure to protect against transplant rejection is determined in an intraabdominal heterotopic vascularized cardiac transplantation model between genetically mismatched mice. Four conditions are compared: the use of an APQ4 inhibitor alone, the use of a CTLA4 Ig alone, the combination of an APQ4 inhibitor with a CTLA4 Ig, and a control.
The donor mouse (BalbC, fully genetically mismatched with respect to the recipient mouse which is B6, C57BL/6) is given a 10 mg/kg IP bolus of 2-((3,5-bis(trifluoromethyl)phenyl)carbamoyl)-4-chlorophenyl dihydrogen phosphate in TrisBase 30 minutes prior to surgery.
Before removing the heart, the donor is perfused with Ringer's solution containing 10 μM N-[3,5-bis(trifluoromethyl)phenyl]-5-chloro-2-hydroxybenzamide. After removal from the donor, the heart is stored at 0-4° C. for 8 hours in Ringer's solution containing 10 μM N-[3,5-bis(trifluoromethyl)phenyl]-5-chloro-2-hydroxybenzamide (Cold Ischemic Storage).
30 Minutes prior to surgery, the recipient mouse is given a 10 mg/kg IP bolus of 2-((3,5-bis(trifluoromethyl)phenyl)carbamoyl)-4-chlorophenyl dihydrogen phosphate in TrisBase. The heart is then transplanted into the recipient mouse (B6 mouse) using the vascularized heterotopic cardiac transplantation model. After closing, the recipient mouse receives 10 mg/kg IP injection of 2-((3,5-bis(trifluoromethyl)phenyl)carbamoyl)-4-chlorophenyl dihydrogen phosphate in TrisBase every 6 hours for 5 days.
The recipient mouse (B6) is administered a single dose of Belatacept IP at 10 mg/kg on the day of the transplant surgery as well as a single dose of Belatacept IP at 10 mg/kg 24 hours after surgery.
As a negative control, both the donor and recipient mice receive IP administration of TrisBase with neither an APQ4 inhibitor nor a CTLA4 Ig. Results
The recipient mice are monitored until their hearts stops beating.

[2] = tested on: explanted heart from BALB/c mice; assay: Cardiac explant experiment: apoptosis by Annexin V flow cytometry after 8 h Cold Ischemic Storage; parameters: species or system mouse; settings: 10 μM in Ringer's solution, 8 hours cold storage at 0-4° C.
Protocol: This experiment is a model for determining the extent of apoptosis occurring in an explanted heart from BALB/c mice. Hearts are perfused with Ringer's solution either supplemented with 10 μM of N-[3,5-bis(trifluoromethyl)phenyl]-5-chloro-2-hydroxybenzamide (Compound 1), or without such supplementation. The explanted hearts are then placed in Cold Ischemic Storage (at 0-4° C.) in their respective buffer solutions for 8 hours. The hearts are then photographed and triturated for analysis of apoptosis using Annexin V flow cytometry. Annexin V is used to label phosphatidylserine on the surface of cells, and this is a conventional marker for cells that have undergone apoptosis. […] In contrast, hearts maintained in the APQ4-inhibitor supplemented Ringer's solution show only about 8% apoptotic cells.

Row | Compound | survival after 20 days [1] | survival after 50 days [1] | survival from about 60 days through the end of monitoring at 120 days ([1]; about 60 days to 120 days) | apoptotic cells [2] | survival from about 60 days through the end of monitoring at 150 days ([1]; about 60 days to 150 days)
1 | O=C(Nc1cc(C(F)(F)F)cc(C(F)(F)F)c1)c1cc(Cl)ccc1OP(=O)(O)O [APQ4 inhibitor, 2-((3,5-bis(trifluoromethyl)phenyl)carbamoyl)-4-chlorophenyl dihydrogen phosphate] | about 30% | about 10% | about 5% |  | 
2 | O=C(Nc1cc(C(F)(F)F)cc(C(F)(F)F)c1)c1cc(Cl)ccc1O [Compound 1, N-[3,5-bis(trifluoromethyl)phenyl]-5-chloro-2-hydroxybenzamide] |  |  |  | about 8% | 
3 | Belatacept [CTLA4 Ig, reference compound] | approximately 60% | about 40% |  |  | about 13%
